This is an account of results in patent US12686690B2, “Macrocyclic urea orexin receptor agonists” (Merck Sharp & Dohme LLC, priority 2020, dated 2026).

This assay concerns the target T1, hOX2R (Homo sapiens, UniProt O43614).
T1 construct: expressed in transfected cells; host or cells: CHO cells (G418 selection)
T1 sequence (O43614 1-444): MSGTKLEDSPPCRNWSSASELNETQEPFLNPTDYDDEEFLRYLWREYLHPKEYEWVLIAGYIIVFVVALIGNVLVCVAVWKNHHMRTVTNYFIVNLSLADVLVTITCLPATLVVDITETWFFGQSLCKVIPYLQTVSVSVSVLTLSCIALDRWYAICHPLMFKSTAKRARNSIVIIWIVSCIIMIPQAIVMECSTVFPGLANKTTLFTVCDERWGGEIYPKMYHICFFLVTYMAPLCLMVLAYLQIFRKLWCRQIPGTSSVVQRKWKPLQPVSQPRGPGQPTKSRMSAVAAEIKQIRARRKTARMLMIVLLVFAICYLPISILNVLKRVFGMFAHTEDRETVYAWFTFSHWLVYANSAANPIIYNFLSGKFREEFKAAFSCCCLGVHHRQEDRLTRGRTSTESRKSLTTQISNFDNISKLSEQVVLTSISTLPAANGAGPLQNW
The assay can be described thus: hOX2R IPone assay (orexin receptor agonism). The assay is classed as cell-based. Conditions: IPone readout; for hOX2R_Ipone max %act: maximal activation; for EC50: orexin receptor agonist, read-out: hOX2R_IPone EC50.

For orientation: EC50 means the concentration giving half of the maximal effect. As for `CCN1C(=O)NC(C(C)OC)CCCCCOc2nc(cn3ccnc23)-c2cc(ncc2OC)[C@H]1C` (stereo partly drawn) [Example 191, (3R,E)-4-ethyl-25-methoxy-7-(1-methoxyethyl)-3-methyl-13-oxa-4,6-diaza-1(6,8)-imidazo[1,2-a]pyrazina-2(4,2)-pyridinacyclotridecaphan-5-one], the hOX2R_Ipone max %act is 102.3% and the EC50 stood at 1.73 nM.

In the case of `CCN1C(=O)N[C@@H](CCC(F)(F)F)CCCCCOc2nc(cn3c(C)cnc23)-c2cc(nc3ccoc23)C1C` (single isomer, unassigned) [Example 76B], the hOX2R_Ipone max %act was determined as 100.4% and the EC50 was 3.4 nM.

For `CCN1C(=O)N[C@@H](CCC(F)(F)F)CCCCCCc2nc(cn3ccnc23)-c2cc(ncc2OC)[C@H]1C` [Example 81, (12R,16R)-13-ethyl-8-methoxy-12-methyl-16-(3,3,3-trifluoropropyl)-12,13,15,16,17,18,19, 20,21,22-decahydro-14H-6,23-(azeno)-11,7-(metheno) imidazo[1,2-l][1,3,6,12]tetraazacy-clohenicosin-14-one], the hOX2R_Ipone max %act came out at 100.1% and the EC50 stood at 3.3 nM.

`CCN1C(=O)N[C@@H](CCC(F)(F)F)CCCCCOc2nc(cn3ccnc23)-c2cccc(n2)C1C` (stereo partly drawn) [Example 90, (16R)-13-ethyl-12-methyl-16-(3,3,3-trifluoropropyl)-12,13,16,17,18,19,20, 21-octahydro-6,23:11,7-di(azeno) imidazo[2,1-c][1,4, 13,15]oxatriazacyclo-henicosin-14(15H)-one]: the hOX2R_Ipone max %act turned out to be 100.8% and the EC50 was found to be 101 nM.

As for `CCN1C(=O)NC(CC2CC2(F)F)CCCCCOc2nc(cn3ccnc23)-c2cc(ncc2OC)[C@H]1C` (single isomer, unassigned) [Example 59C], the hOX2R_Ipone max %act stood at 99.3% and the EC50 turned out to be 0.5 nM.

For `CCN1C(=O)N[C@@H](CCC(F)(F)F)CCCCCOc2nc(cn3ccnc23)C2=NC=C(O2)C1C` (single isomer, unassigned) [Example 104B], the hOX2R_Ipone max %act is 101.1% and the EC50 stood at 64.1 nM.

In the case of `CCN1C(=O)N[C@@H](CCC(F)(F)F)CCCCOc2nc(cn3ccnc23)-c2cc(cnc2OC)[C@H]1C` [Example 27, (3R,7R,E)-4-ethyl-22-methoxy-3-methyl-7-(3,3,3-trifluoropropyl)-12-oxa-4,6-diaza-1(6,8)-imidazo[1,2-a]pyrazina-2(3,5)-pyridinacyclododecaphan-5-one], the hOX2R_Ipone max %act worked out at 101.1% and the EC50 is 1.4 nM.

Consider `CCN1C(=O)NC(C2CC2)CCCCCOc2nc(cn3ccnc23)-c2cc(ncc2OC)[C@H]1C` (single isomer, unassigned) [Example 57A], for which the hOX2R_Ipone max %act is listed as 100.7% and the EC50 came to 119 nM.

Take `CCN1C(=O)NC(CC(C)(F)F)CCCCCOc2nc(nn3ccnc23)-c2cc(ncc2OC)[C@H]1C` (stereo partly drawn) [Example 207, (3R,E)-7-(2,2-difluoropropyl)-4-ethyl-25-methoxy-3-methyl-13-oxa-4,6-diaza-1(2,4)-imidazo[2,1-f][1,2,4]triazina-2(4,2)-pyridinacyclo-tridecaphan-5-one]: the hOX2R_Ipone max %act is 104.7% and the EC50 was determined as 4.29 nM.

As for `CCN1C(=O)NC(c2cscn2)CCCCCOc2nc(cn3ccnc23)-c2cccc(c2)[C@H]1C` (single isomer, unassigned) [Example 19A], the hOX2R_Ipone max %act is 97.1% and the EC50 worked out at 337 nM.

On to `CCN1C(=O)N[C@@H](CCC(F)(F)F)CCCCCOc2nc(cn3ccnc23)-c2cc(cnc2OC)[C@H]1C` [Example 28, (3R,7R,E)-4-ethyl-22-methoxy-3-methyl-7-(3,3,3-trifluoropropyl)-13-oxa-4,6-diaza-1(6,8)-imidazo[1,2-a]pyrazina-2(3,5)-pyridinacyclotridecaphan-5-one], for which the hOX2R_Ipone max %act came to 102.2% and the EC50 turned out to be 0.9 nM.

Turning to `CCN1C(=O)N[C@@H](CCC(C)(F)F)CCCCCOc2nc(cn3ccnc23)-c2ccnc(c2)[C@H]1C` [Example 84, (12R,16R)-16-(3,3-difluorobutyl)-13-ethyl-12-methyl-12, 13,16,17,18,19,20,21-octahydro-6,23-(azeno)-11,7-(metheno)imidazo[2,1-c][1,4,10,13,15] oxatetraazacycloheni-cosin-14(15H)-one], the hOX2R_Ipone max %act was determined as 99.1% and the EC50 was 1.5 nM.

As for `CCCC1CCCCCOc2nc(cn3ccnc23)-c2cc(ncc2OC)[C@@H](C)N(CC)C(=O)N1` (single isomer, unassigned) [Example 54A], the hOX2R_Ipone max %act was determined as 102% and the EC50 was determined as 143 nM.

Turning to `CCN1C(=O)NC(C(N)=O)CCCCCOc2nc(cn3ccnc23)-c2cc(ncc2F)[C@H]1C` (stereo partly drawn) [Example 225, (3R,E)-4-ethyl-25-fluoro-3-methyl-5-oxo-13-oxa-4,6-diaza-1(6,8)-imidazo[1,2-a]pyrazina-2(4,2)-pyridinacyclotridecaphane-7-carboxamide], the hOX2R_Ipone max %act came out at 78.64% and the EC50 came out at 286 nM.

`CCN1C(=O)NC2CC2CCCCOc2cn3ccnc3c(n2)-c2cc(ncc2OC)C1C` [Example 145, (3R,E)-4-ethyl-25-methoxy-3-methyl-12-oxa-4,6-diaza-1(6,8)-imidazo[1,2-a]pyrazina-2(4,2)-pyridina-7(1,2)-cyclopropanacyclododecaphan-5-one]: the hOX2R_Ipone max %act worked out at 103.8% and the EC50 is 4.4 nM.

Turning to `CCN1C(=O)N[C@@H](CCC(C)(F)F)CCCCCOc2nc(cc3ncnn23)-c2cc(ncc2OC)[C@H]1C` [Example 176], the hOX2R_Ipone max %act turned out to be 99.6% and the EC50 amounted to 2.97 nM.

For `CCN1C(=O)N[C@@H](CCC(F)(F)F)CCCCCOc2cc(nn3ccnc23)-c2cc(ncc2OC)[C@H]1C` [Example 149, (3R,7R,E)-4-ethyl-25-methoxy-3-methyl-7-(3,3,3-trifluoropropyl)-13-oxa-4,6-diaza-1(6,8)-imidazo[1,2-b]pyridazina-2(4,2)-pyridinacyclotridecaphan-5-one], the hOX2R_Ipone max %act was found to be 109.6% and the EC50 is 1.11 nM.

In the case of `CCN1C(=O)N[C@@H](CCC(F)(F)F)CCOCCOc2nc(cn3ncnc23)-c2cc(ncc2OC)[C@H]1C` [Example 164, (3R,7S,E)-4-ethyl-25-methoxy-3-methyl-7-(3,3,3-trifluoropropyl)-10,13-dioxa-4,6-diaza-1(6,8)-[1,2,4]triazolo[1,5-a]pyrazina-2(4,2)-pyridinacyclotridecaphan-5-one], the hOX2R_Ipone max %act worked out at 100.1% and the EC50 was 2.62 nM.

As for `CCN1C(=O)NC(COC(C)C)CCCCCOc2nc(cn3ccnc23)-c2cc(ncc2OC)[C@H]1C` (stereo partly drawn) [Example 185, (3R,E)-4-ethyl-7-(isopropoxymethyl)-25-methoxy-3-methyl-13-oxa-4,6-diaza-1(6,8)-imidazo[1,2-a]pyrazina-2(4,2)-pyridinacyclotridecaphan-5-one], the hOX2R_Ipone max %act came out at 102.1% and the EC50 is 2.03 nM.

As to `CCN1C(=O)NC(CC2(C(F)(F)F)CC2)CCCCCOc2nc(cn3ccnc23)-c2cc(ncc2OC)[C@H]1C` (single isomer, unassigned) [Example 66A], the hOX2R_Ipone max %act is on record as 102.9% and the EC50 is 9.6 nM.

On to `CCN1C(=O)N[C@@H](CCC(F)(F)F)CCCCCOc2cc(cc3ccnn23)-c2cc(nnc2OC)[C@H]1C` [Example 140, (3R,7R,E)-4-ethyl-26-methoxy-3-methyl-7-(3,3,3-trifluoropropyl)-13-oxa-4,6-diaza-1(5,7)-pyrazolo[1,5-a]pyridina-2(5,3)-pyridazinacyclotridecaphan-5-one], for which the hOX2R_Ipone max %act came out at 101.9% and the EC50 is 1.4 nM.

Consider `CCN1C(=O)NC(CCOC)CCCCCOc2nc(cn3ccnc23)-c2cc(ncc2OC)[C@H]1C` (single isomer, unassigned) [Example 56A], for which the hOX2R_Ipone max %act came out at 101.7% and the EC50 worked out at 32 nM.

In the case of `CCN1C(=O)N[C@@H](CCC(F)(F)F)CCCCCOc2nc(cn3ccnc23)-c2cc(ccn2)[C@H]1C` [Example 113B, (12R,16R)-13-ethyl-12-methyl-16-(3,3,3-trifluoropropyl)-12,13,16,17,18,19,20,21-octahydro-6,23-(azeno)-11,7-(metheno)imidazo[2,1-c][1,4,8,13,15]oxatetraazacyclohenicosin-14(15H)-one], the hOX2R_Ipone max %act is recorded as 100.9% and the EC50 was determined as 3.3 nM.

On to `CCN1C(=O)NC(CC(F)(F)CC)CCOCCOc2cn3ncnc3c(n2)-c2cc(ncc2C)C1C` [Example 122, (3R,E)-7-(2,2-difluorobutyl)-4-ethyl-25,3-dimethyl-10,13-dioxa-4,6-diaza-1(6,8)-[1,2,4]triazolo[1,5-a]pyrazina-2(4,2)-pyridinacyclotridecaphan-5-one], for which the hOX2R_Ipone max %act is listed as 104.4% and the EC50 came to 36.4 nM.

For `CCN1C(=O)N[C@@H](CCC(F)F)CCOCCOc2nc(nn3ccnc23)-c2cc(ncc2F)[C@H]1C` [Example 127, (3R,7S,E)-7-(3,3-difluoropropyl)-4-ethyl-25-fluoro-3-methyl-10,13-dioxa-4,6-diaza-1(2,4)-imidazo[2,1-f][1,2,4]triazina-2(4,2)-pyridinacyclotridecaphan-5-one], the hOX2R_Ipone max %act came out at 100.1% and the EC50 came out at 5.43 nM.
